Here are results for eleven molecules from ChEMBL document CHEMBL1201862, “PubChem BioAssay data set” (2004).

Among the test systems are ACHN; RXF 393; HOP-62; KM12; UO-31; EKVX; NCI-H522; SK-MEL-5; SF-268; OVCAR-5; SR; UACC-62; A498; OVCAR-3; Hs-578T; HOP-92; PC-3; T47D; RPMI-8226.
Common to all, as to assay: NCI tumour cell line growth inhibition, 48 h

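Interpolation was linear, between the two tested concentrations surrounding the appropriate level; five concentrations were tested over 48 hours in 96-well plates. The concentration for 50% growth inhibition is given as GI50.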 Activity calls are given as the source filed them. Cut-off read from the data, not from the text of the source: active = GI50 up to about 1.1 µM and inactive = higher. Where only a bound is given, the exact number is not on record here.

For `CN(C)CCn1c(=O)c2ccc3c4c(nn3CCN(C)C)c3ccccc3n(c1=O)c24`, the GI50 is < 0.129 µM (active) with ACHN; 0.275 µM (active) in the experiment on RXF 393; 0.164 µM (active) with HOP-62; 0.205 µM (active) with KM12; 0.271 µM (active) with UO-31; < 0.0113 µM (active) with EKVX. Besides, the GI50 in the experiment on NCI-H522 is < 0.0219 µM (active); in the experiment with SK-MEL-5 it was 0.728 µM (active); in the experiment on SF-268, 0.211 µM (active); with OVCAR-5 it was 0.485 µM (active); in the experiment on SR, < 0.127 µM (active); in the experiment on UACC-62, 0.564 µM (active). Also, the GI50 with A498 was 0.301 µM (active); in the experiment on OVCAR-3, 0.431 µM (active); with Hs-578T, 0.526 µM (active); in the experiment on HOP-92 it was 1.87 µM (inactive); with PC-3, 0.351 µM (active); with T47D, 0.524 µM (active).
As for `Cc1cc(C)c2c(O)c(S(=O)(=O)c3ccc(Cl)cc3)c(=O)oc2c1`, the GI50 was > 100 µM (inactive) in the experiment with RXF 393; 60.1 µM (inactive) in the experiment with RPMI-8226; 61.8 µM (inactive) in the experiment with HOP-62; 36.1 µM (inactive) with KM12; 50.8 µM (inactive) in the experiment on UO-31; 22.7 µM (inactive) with EKVX. The GI50 in the experiment on SK-MEL-5 is 60 µM (inactive); in the experiment on SF-268 it was 40.2 µM (inactive); with OVCAR-5, 93.1 µM (inactive); in the experiment with SR, 82.4 µM (inactive); with UACC-62, 58.6 µM (inactive); in the experiment with A498 it was > 100 µM (inactive). In addition, the GI50 in the experiment on OVCAR-3 was 40 µM (inactive); in the experiment with Hs-578T, 39.4 µM (inactive); in the experiment with HOP-92 it was 65.6 µM (inactive); with PC-3 it was 49 µM (inactive); in the experiment with T47D it was 99.8 µM (inactive).
As to `CC(C)(C)OC(=O)N1CCc2c(n(C/C=C/c3ccccc3)[nH]c2=O)C1`, the GI50 with ACHN is > 100 µM (inactive); in the experiment on RXF 393, > 100 µM (inactive); with RPMI-8226 it was 95.5 µM (inactive); in the experiment on HOP-62, > 80.7 µM (inactive); in the experiment on KM12, > 100 µM (inactive); in the experiment with UO-31, 61.2 µM (inactive). The GI50 in the experiment with EKVX was > 83.8 µM (inactive); in the experiment with NCI-H522 it was > 51.2 µM (inactive); with SK-MEL-5, 34.4 µM (inactive); with SF-268 it was > 100 µM (inactive); in the experiment with SR, 35.5 µM (inactive); in the experiment with UACC-62 it was > 100 µM (inactive). Moreover, the GI50 is > 100 µM (inactive) with A498; > 100 µM (inactive) in the experiment with OVCAR-3; > 100 µM (inactive) in the experiment on Hs-578T; > 53.5 µM (inactive) in the experiment with HOP-92; > 100 µM (inactive) with PC-3; 46.7 µM (inactive) with T47D.
In the case of `CNC(=O)CC1NC(=O)c2csc(n2)-c2ccc(-c3nc(C4=NC(C(=O)N5CCCC5C(N)=O)CO4)cs3)nc2-c2csc(n2)-c2csc(n2)C(C(C)C)NC(=O)CNC(=O)c2csc(n2)C(C(C)C)NC(=O)c2nc1sc2C` (stereo unspecified), the GI50 in the experiment on ACHN was 4.37 µM (inactive); in the experiment with RXF 393, 0.00386 µM (active); in the experiment with RPMI-8226 it was > 25 µM (inactive); in the experiment on HOP-62 it was 0.00826 µM (active); in the experiment on KM12 it was 0.0171 µM (active); with UO-31 it was 2.18 µM (inactive). Moreover, the GI50 is 2.38 µM (inactive) in the experiment on EKVX; 0.00289 µM (active) in the experiment on SK-MEL-5; 0.0625 µM (active) in the experiment on SF-268; 0.0271 µM (active) with OVCAR-5; > 25 µM (inactive) in the experiment on SR; 0.00438 µM (active) with UACC-62. Also, the GI50 in the experiment with A498 is 0.0923 µM (active); in the experiment on OVCAR-3, 0.00979 µM (active); with Hs-578T it was > 25 µM (inactive); in the experiment on HOP-92, 0.968 µM (active); in the experiment with PC-3, 0.00489 µM (active); with T47D it was 0.0033 µM (active).
In the case of `O=C(C/C(=N/O)C(=O)NC1=C(Cl)C(=O)c2ccccc2C1=O)CC(c1ccccc1)c1c(O)c2ccccc2oc1=O` (stereo unspecified), the GI50 in the experiment on ACHN was 19.8 µM (inactive); with RXF 393, 13.2 µM (inactive); in the experiment on RPMI-8226 it was 19.1 µM (inactive); in the experiment with KM12 it was 3.5 µM (inactive); in the experiment with UO-31 it was 14.9 µM (inactive); in the experiment on EKVX it was 14.5 µM (inactive). Besides, the GI50 with NCI-H522 is 13.2 µM (inactive); in the experiment on SK-MEL-5, 1.12 µM (inactive); in the experiment with SF-268, 7.35 µM (inactive); with OVCAR-5, 17.7 µM (inactive); in the experiment with SR it was 7.35 µM (inactive); with UACC-62, 3.14 µM (inactive). Moreover, the GI50 in the experiment on A498 is 46.6 µM (inactive); with OVCAR-3 it was 3.88 µM (inactive); in the experiment on Hs-578T, 6.76 µM (inactive); in the experiment with HOP-92, 22.3 µM (inactive); with PC-3 it was 3.92 µM (inactive); with T47D it was 12.1 µM (inactive).
Turning to `O=c1cnn(C2OC(C(O)CO)C(O)C2O)c(=O)[nH]1` (stereo unspecified), the GI50 with ACHN, in the experiment on RXF 393, in the experiment with RPMI-8226, in the experiment on HOP-62, in the experiment with KM12 and in the experiment on UO-31 was > 100 µM (inactive) each time. The GI50 with EKVX, in the experiment on NCI-H522, in the experiment with SK-MEL-5, in the experiment on SF-268, in the experiment on OVCAR-5 and in the experiment on SR was > 100 µM (inactive) throughout. For the same molecule, the GI50 in the experiment with UACC-62, in the experiment on OVCAR-3, in the experiment with Hs-578T, in the experiment on HOP-92, in the experiment with PC-3 and in the experiment with T47D was > 100 µM (inactive) throughout.
For `Cc1ccc2c(c1)[nH]c(=S)n2C=C1C(=O)CC(C)(C)CC1=O`, the GI50 with ACHN was > 100 µM (inactive); in the experiment with RXF 393, > 100 µM (inactive); in the experiment with HOP-62, > 100 µM (inactive); in the experiment on KM12, > 100 µM (inactive); in the experiment on UO-31, > 100 µM (inactive); with EKVX it was 18.9 µM (inactive). The GI50 with NCI-H522, in the experiment with SK-MEL-5, in the experiment with SF-268, in the experiment with OVCAR-5, in the experiment with SR and in the experiment with UACC-62 was > 100 µM (inactive) throughout. The GI50 in the experiment on A498, with OVCAR-3, in the experiment with Hs-578T, in the experiment on HOP-92, in the experiment with PC-3 and in the experiment on T47D was > 100 µM (inactive) throughout.
With `O=C(c1cc(Cl)ccc1Cl)N1CCN(c2cccc(Cl)c2)CC1`, the GI50 in the experiment with ACHN is 22.8 µM (inactive); with RXF 393, 11.1 µM (inactive); in the experiment with RPMI-8226, 22.3 µM (inactive); in the experiment on HOP-62, 16 µM (inactive); with KM12 it was 6.07 µM (inactive); with UO-31, 19.7 µM (inactive). The GI50 is 22.9 µM (inactive) with EKVX; 10.6 µM (inactive) with NCI-H522; 6.59 µM (inactive) in the experiment on SK-MEL-5; 27.9 µM (inactive) in the experiment with SF-268; 26.4 µM (inactive) in the experiment on OVCAR-5; 26.4 µM (inactive) in the experiment with SR. The GI50 in the experiment with A498 was 12.7 µM (inactive); with OVCAR-3 it was 14.5 µM (inactive); with Hs-578T, 21.9 µM (inactive); with HOP-92, > 10 µM (inactive); in the experiment on PC-3, 2.08 µM (inactive); with T47D, 10.7 µM (inactive).
Consider `CC(=O)NC1C(OCc2ccccc2)OC(CO)C(O)C1OCC(=O)NC(C)C(=O)NC(CCC(=O)Nc1ccc2c(c1)CN1C(=O)c3ccccc3C1=N2)C(N)=O` (stereo unspecified), for which the GI50 with ACHN, with RXF 393, with RPMI-8226, in the experiment on HOP-62, in the experiment on KM12 and in the experiment with UO-31 was > 100 µM (inactive) throughout. Further, the GI50 with EKVX, in the experiment on SK-MEL-5, in the experiment on SF-268, with OVCAR-5, in the experiment on SR and in the experiment with UACC-62 was > 100 µM (inactive) throughout. Besides, the GI50 with A498 is > 100 µM (inactive); in the experiment on OVCAR-3 it was > 100 µM (inactive); in the experiment on Hs-578T, > 100 µM (inactive); in the experiment with HOP-92, 76.7 µM (inactive); in the experiment with PC-3, > 100 µM (inactive); in the experiment with T47D, 42.8 µM (inactive).
Take `COC(=O)c1ccc(/C=N/c2ccc(S(N)(=O)=O)cc2)cc1`: the GI50 in the experiment on ACHN is 84.3 µM (inactive); with RXF 393 it was > 100 µM (inactive); in the experiment on RPMI-8226, 30.9 µM (inactive); in the experiment on HOP-62, > 100 µM (inactive); with KM12 it was > 100 µM (inactive); in the experiment on UO-31 it was 74.5 µM (inactive). Also, the GI50 was > 100 µM (inactive) with EKVX; > 100 µM (inactive) in the experiment on SK-MEL-5; > 100 µM (inactive) with SF-268; > 100 µM (inactive) in the experiment on OVCAR-5; 43 µM (inactive) in the experiment on SR; 60.3 µM (inactive) in the experiment on UACC-62. In addition, the GI50 in the experiment with A498 was > 100 µM (inactive); in the experiment with OVCAR-3 it was 87.1 µM (inactive); in the experiment on Hs-578T, 38.2 µM (inactive); in the experiment on HOP-92, 65.5 µM (inactive); in the experiment on PC-3, > 100 µM (inactive); with T47D it was > 100 µM (inactive).
In the case of `C[C@@H]([C@H]1CC[C@@]2(C)[C@@H]3CC[C@@H]4C(=CC3=CC[C@]12C)CC[C@H](N(C)C)C4(C)C)N(C)C` [BUXAMINE A], the GI50 in the experiment with ACHN, with RXF 393, in the experiment with RPMI-8226, in the experiment on HOP-62, in the experiment on KM12 and with EKVX was > 100 µM (inactive) in each case. In addition, the GI50 in the experiment with NCI-H522, in the experiment with SK-MEL-5, in the experiment on SF-268, with OVCAR-5, with SR and in the experiment on UACC-62 was > 100 µM (inactive) in each case. Moreover, the GI50 in the experiment with OVCAR-3, in the experiment on Hs-578T, in the experiment with HOP-92, with PC-3 and in the experiment with T47D was > 100 µM (inactive) throughout.
